# Key:
# Type in all cases: functional
# [1] = test system: Culex pipiens pallens; experiment: Insecticidal activity against Culex pipiens pallens (mosquito) fourth-instar larvae assessed as insect mortality at 2 ug/mL measured 96 hr post compound exposure
# [2] = test system: Plutella xylostella; experiment: Insecticidal activity against Plutella xylostella (diamondback moth) second-instar larvae grown on compound treated fresh cabbage leaves assessed as insect mortality at 200 ug/mL measured 96 hr post compound exposure by leaf film feeding method
# [3] = test system: Plutella xylostella; experiment: Insecticidal activity against Plutella xylostella (diamondback moth) second-instar larvae grown on compound treated fresh cabbage leaves assessed as insect mortality at 400 ug/mL measured 96 hr post compound exposure by leaf film feeding method
# [4] = test system: Culex pipiens pallens; experiment: Insecticidal activity against Culex pipiens pallens (mosquito) fourth-instar larvae assessed as insect mortality at 0.5 ug/mL measured 96 hr post compound exposure
# [5] = test system: Culex pipiens pallens; experiment: Insecticidal activity against Culex pipiens pallens (mosquito) fourth-instar larvae assessed as insect mortality at 1 ug/mL measured 96 hr post compound exposure
# [6] = test system: Plutella xylostella; experiment: Insecticidal activity against Plutella xylostella (diamondback moth) second-instar larvae grown on compound treated fresh cabbage leaves assessed as insect mortality measured 96 hr post compound exposure by leaf film feeding method
Structure (SMILES),mortality at 2 µg/mL [1],mortality at 200 µg/mL [2],mortality at 400 µg/mL [3],mortality at 0.5 µg/mL [4],mortality at 1 µg/mL [5],LC50 [6]
Cc1nnsc1C(=O)N(NC(=O)c1cccc([N+](=O)[O-])c1)C(C)(C)C,10%,34%,–,–,–,–
Cc1cccc(C(=O)N(NC(=O)c2snnc2C)C(C)(C)C)c1,20%,0%,–,–,–,–
Cc1nnsc1C(=O)NN(C(=O)c1cccc(Cl)c1)C(C)(C)C,30%,0%,–,–,–,–
COc1ccc(C(=O)NN(C(=O)c2snnc2C)C(C)(C)C)cc1,10%,–,28%,–,–,–
Cc1nnsc1C(=O)N(NC(=O)c1cccc(C(F)(F)F)c1)C(C)(C)C,100%,32%,–,0%,100%,–
Cc1nnsc1C(=O)NN(C(=O)c1ccc(Cl)cc1)C(C)(C)C,100%,25%,–,10%,100%,–
Cc1nnsc1C(=O)N(NC(=O)c1ccccc1[N+](=O)[O-])C(C)(C)C,20%,16%,–,–,–,–
Cc1nnsc1C(=O)N(NC(=O)c1ccc([N+](=O)[O-])cc1)C(C)(C)C,30%,33%,–,–,–,–
Cc1nnsc1C(=O)N(NC(=O)c1cccc(Cl)c1)C(C)(C)C,0%,25%,–,–,–,–
Cc1nnsc1C(=O)NN(C(=O)c1ccc(C(F)(F)F)cc1)C(C)(C)C,30%,5%,–,–,–,–
COc1ccccc1C(=O)NN(C(=O)c1snnc1C)C(C)(C)C,10%,29%,–,–,–,–
Cc1nnsc1C(=O)NN(C(=O)c1ccccc1[N+](=O)[O-])C(C)(C)C,10%,–,45%,–,–,–
COc1cccc(C(=O)NN(C(=O)c2snnc2C)C(C)(C)C)c1,10%,–,10%,–,–,–
Cc1nnsc1C(=O)NN(C(=O)c1ccccc1Cl)C(C)(C)C,10%,79%,–,–,–,28 µg/mL
Cc1nnsc1C(=O)NN(C(=O)c1cccc(C(F)(F)F)c1)C(C)(C)C,40%,46%,–,–,–,–
Cc1nnsc1C(=O)NN(C(=O)c1cccc([N+](=O)[O-])c1)C(C)(C)C,30%,–,23%,–,–,–
Cc1ccccc1C(=O)NN(C(=O)c1snnc1C)C(C)(C)C,100%,68%,–,30%,100%,–
COc1cccc(C(=O)N(NC(=O)c2snnc2C)C(C)(C)C)c1,20%,37%,–,–,–,–
Cc1nnsc1C(=O)N(NC(=O)c1ccc(C(F)(F)F)cc1)C(C)(C)C,40%,13%,–,–,–,–
COc1ccc(C(=O)N(NC(=O)c2snnc2C)C(C)(C)C)cc1,10%,25%,–,–,–,–
COc1ccccc1C(=O)N(NC(=O)c1snnc1C)C(C)(C)C,10%,–,30%,–,–,–
Cc1cccc(C(=O)NN(C(=O)c2snnc2C)C(C)(C)C)c1,20%,12%,–,–,–,–
Cc1nnsc1C(=O)N(NC(=O)c1ccc(Cl)cc1)C(C)(C)C,20%,–,43%,–,–,–
Cc1nnsc1C(=O)NN(C(=O)c1ccc([N+](=O)[O-])cc1)C(C)(C)C,10%,5%,–,–,–,–
Cc1ccc(C(=O)N(NC(=O)c2snnc2C)C(C)(C)C)cc1,10%,15%,–,–,–,–
CCc1ccc(C(=O)NN(C(=O)c2cc(C)cc(C)c2)C(C)(C)C)cc1 [TEBUFENOZIDE],100%,40%,–,60%,100%,26 µg/mL
Cc1ccc(C(=O)NN(C(=O)c2snnc2C)C(C)(C)C)cc1,0%,37%,–,–,–,–
Cc1ccccc1C(=O)N(NC(=O)c1snnc1C)C(C)(C)C,20%,8%,–,–,–,–
Cc1nnsc1C(=O)NN(C(=O)c1ccccc1C(F)(F)F)C(C)(C)C,10%,15%,–,–,–,–
Cc1nnsc1C(=O)N(NC(=O)c1ccccc1Cl)C(C)(C)C,20%,24%,–,–,–,–

# — ChEMBL document CHEMBL3045861, “Synthesis and insecticidal activity of N-tert-butyl-N,N'-diacylhydrazines containing 1,2,3-thiadiazoles” (2011)
